According to paper PMC10843894 (Cell and tissue research, 2011):
Ends that are not written are not given here.

Legend:
intracellular Ca^2+ = assay: Secretin-induced catecholamine secretion with intracellular Ca2+ chelator; format: cell-based, rat; conditions: BAPTA-AM 50 μM pre-treatment 30 min; secretin 8 μM, 20 min, Ca2+-free buffer + 0.5 mM EGTA
PLC-β = assay: Inhibition of secretin-evoked catecholamine secretion by PLC-β blockade; format: cell-based, rat; conditions: secretin 8 μM, 20 min
phospholipase C = conditions: U-73122 20 μM, secretin 8 μM, 0.5 min
[1] = system: plasma membrane Ca^2+ channels; format: cell-based, rat
[2] = system: plasma membrane Ca^2+ channels; format: cell-based, rat; conditions: ZnCl2 100 μM; data not shown
catecholamine secretion = conditions: cited from earlier work
cAMP in PC12 cells = conditions: cited from earlier work
Th gene = conditions: cited from earlier work; for transcription of Th (PACAP and VIP, literature): porcine/bovine chromaffin cells, PC12 cells, CATH.a cells, ref Isobe et al. 1996, Park et al. 1999, Tonshoff et al. 1997, Corbitt et al. 1998, 2002, Yukimasa et al. 1999, Muller et al. 1997
VPAC1 = target: T1, VPAC1 (Rattus norvegicus, UniProt P30083); assay: Blockade of secretin-induced Th transcription by VPAC1 antagonist; conditions: pre-treatment before secretin 0.1 μM (Fig. 1d)
T1 sequence (P30083 31-459): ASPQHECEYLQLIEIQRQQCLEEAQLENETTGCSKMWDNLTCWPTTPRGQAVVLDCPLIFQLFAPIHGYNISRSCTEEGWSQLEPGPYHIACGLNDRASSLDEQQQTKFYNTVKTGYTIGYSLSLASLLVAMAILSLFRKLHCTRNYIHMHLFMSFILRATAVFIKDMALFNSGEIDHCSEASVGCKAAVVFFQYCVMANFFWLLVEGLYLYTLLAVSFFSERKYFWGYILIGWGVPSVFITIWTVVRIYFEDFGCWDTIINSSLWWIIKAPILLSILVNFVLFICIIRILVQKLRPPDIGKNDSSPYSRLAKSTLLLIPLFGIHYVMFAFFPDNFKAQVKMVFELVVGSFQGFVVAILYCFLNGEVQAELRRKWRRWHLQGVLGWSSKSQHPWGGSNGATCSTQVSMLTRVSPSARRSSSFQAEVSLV

PAC1 receptor = PAC1 receptor agonism inferred from secretion concentrations; format: cell-based; conditions: inferred from secretion findings
SCTR = assay: Inhibition of secretin-induced catecholamine secretion by SCTR antagonist; format: cell-based, rat; conditions: antagonist up to 20 μM, secretin 6 μM, 30 min

Molecule: CC(=O)OCOC(=O)CN(CC(=O)OCOC(C)=O)c1ccccc1OCCOc1ccccc1N(CC(=O)OCOC(C)=O)CC(=O)OCOC(C)=O [BAPTA-AM]
- effect of BAPTA-AM on secretin-induced catecholamine secretion (intracellular Ca^2+): completely abolished

Molecule: COc1ccc2c(c1)CC[C@@H]1[C@@H]2CC[C@]2(C)[C@@H](NCCCCCCN3C(=O)C=CC3=O)CC[C@@H]12 [U73122]
- inhibition of secretin-evoked catecholamine secretion by PLC-β inhibitor (PLC-β; U-73122 10 μM): ~ 54%
- inhibition of IP3 levels by PLC blockade (phospholipase C): ~ 61%

Molecule: COc1ccc2c(c1)CC[C@@H]1[C@@H]2CC[C@]2(C)[C@@H](NCCCCCCN3C(=O)CCC3=O)CC[C@@H]12 [U-73343]
- effect of inactive isomer on secretin-induced secretion (PLC-β; U-73343 10 μM): did not affect secretin-induced secretion

Molecule: [Cl-].[Cl-].[Zn+2] [ZnCl2]
- effect of non-specific Ca2+ channel blockade on secretin-induced secretion ([1]; ZnCl2 100 μM, secretin 8 μM, 20 min): ineffective
- block of PACAP-induced catecholamine secretion [2]: completely blocked

Molecule: CN1CCC[C@H]1c1cccnc1 [nicotine]
- prolonged catecholamine secretion, nicotine (literature) (catecholamine secretion; ref Hamelink et al. 2002): does not cause prolonged catecholamine secretion

Molecule: Pituitary adenylyl cyclase activating polypeptide [PACAP]
- intracellular cAMP levels in chromaffin cells (literature), PACAP (cAMP in PC12 cells; ref Hamelink et al. 2002): elevated
- transcription of Th (PACAP and VIP, literature) (Th gene): augment the transcription of Th
- concentration achieving significant catecholamine secretion (PACAP) (catecholamine secretion; ref Chowdhury et al. 1994, Przywara et al. 1996): 10 nM
- prolonged catecholamine secretion, PACAP (literature) (catecholamine secretion; ref Taupenot et al. 1999): long-lasting

Molecule: VIP6–28: VPAC1 (VIP6–28) antagonist (FTDNYTRLRKQMAVKKYLNSILN; ends and bridges not checked; UniProt P01282 130-152, looked up, fragment)
- effect of VPAC1 antagonist on Th gene expression induced by secretin or PHI (Th gene; ref Wessels-Reiker et al. 1993): no significant effect
- effect of VPAC1 antagonist on VIP-increased Th mRNA (Th gene; ref Wessels-Reiker et al. 1993): lowers the effect of VIP on increasing Th mRNA
- effect on secretin-induced transcription of Th gene, VPAC1 antagonist (VPAC1): Failure

Molecule: Vasoactive intestinal polypeptide [VIP]
- agonism at PAC1 receptor (PAC1 receptor): poor agonists for the PAC1 receptor
- intracellular cAMP levels in chromaffin cells (literature), VIP (cAMP in PC12 cells; ref Anderova et al. 1998): elevated
- transcription of Th (PACAP and VIP, literature) (Th gene): augment the transcription of Th
- concentration achieving significant catecholamine secretion (VIP) (catecholamine secretion; ref Guo and Wakade 1994, Wakade et al. 1991): 300 nM
- source of Ca2+ for VIP-induced catecholamine secretion (catecholamine secretion; ref Malhotra et al. 1988): depends solely upon Ca^2+ mobilization from intracellular stores

Molecule: secretin5–27: SCTR antagonist (secretin5–27) (TFTSELSRLREGARLQRLLQGLV; ends and bridges not checked; UniProt P09683 32-54, looked up, fragment)
- effect of SCTR antagonist on secretin-induced secretion (SCTR): failed to inhibit secretion
- effect of SCTR antagonist on VIP- or PHI-induced Th gene expression (Th gene; ref Wessels-Reiker et al. 1993): no significant effect
- effect of SCTR antagonist on secretin-induced Th gene expression (literature) (Th gene; ref Wessels-Reiker et al. 1993): reduces the effect of secretin

Molecule: ω-agatoxin
- effect of Ca2+ channel inhibitors on secretin-induced catecholamine secretion [1]: little to no effect

Molecule: ω-conotoxin GVIA
- effect of Ca2+ channel inhibitors on secretin-induced catecholamine secretion [1]: little to no effect

Molecule: ω-conotoxin MVIIC
- effect of Ca2+ channel inhibitors on secretin-induced catecholamine secretion [1]: little to no effect
